In patent publication US20120041305A1, “LIGHT-EMITTING DYE FOR INTRAOPERATIVE IMAGING OR SENTINEL LYMPH NODE BIOPSY” (THE UNIVERSITY OF UTAH RESEARCH FOUNDATION, priority 2009, published 2012):
Read-outs that look alike come from different tables or passages of the source.

Key:
[1] = Porcine model of lymphatic mapping (intradermal limb injection); format: in vivo, swine
[2] = vital blue dye alone, intradermal; cited from earlier work
[3] = cited from earlier work
[4] = Human melanoma clinical trial, intraoperative sentinel lymph node fluorescence; format: in vivo; details: 0.001%, 1 ml intradermally in 4 locations, 3 out of 5 patients
Protocol: Patients with cutaneous malignant melanoma with a Breslow thickness of 0.75 mm or greater, or Clark level IV/V involvement, or ulceration were enrolled in the trial. All patients underwent preoperative lymphoscintigraphy with 99m-Technetium labeled sulfur colloid up to 24 hours before the operation. The normally used intraoperative vital blue dye was replaced by fluorescein. The initial starting dose of fluorescein was 0.001% and 1 ml was injected intradermally intraoperatively in 4 locations around the melanoma biopsy site. At this does, sentinel lymph node fluorescence was identified in 3 out of 5 patients (60%). […] The 0.01% dose was used in the subsequent phase II study.

[5] = 120 colon cancer patients, intramural bowel injection; cited from earlier work
[6] = 1,047 patients, intradermal, 10% fluorescein mixed 1:1 with 1% lidocaine hydrochloride; cited from earlier work

SMILES | forelimb injections leading to a SLN ([1]; swine forelimb, injected four times) | cases in which the SLN can be identified [2] | patients with anaphylactoid reaction or life threatening anaphylactic shock ([3]; 1% dye, lymphatic mapping and SLNB) | chance of a life-threatening anaphylactic event caused by injection ([3]; human, in vivo) [%] | forelimb injections developing visible fluorescence leading to a SLN ([1]; swine forelimb, one of seven injections) [%] | hindlimb injections showing lymphatic trunks under the skin leading to the SLN ([1]; swine hindlimb, nine of ten injections) [%] | patients with sentinel lymph node fluorescence identified [4] [%] | adverse reactions [5] | adverse reactions [6]
CCN(CC)c1ccc(C(=C2C=CC(=[N+](CC)CC)C=C2)c2cc(S(=O)(=O)[O-])ccc2S(=O)(=O)[O-])cc1.[Na+] [Lymphazurin, isosulfan blue] | failed to lead to a SLN | approximately 87% | 0.1-2% | 1 |  |  |  |  | 
O=C1OC2(c3ccc(O)cc3Oc3cc(O)ccc32)c2ccccc21 [fluorescein, Fluorescein] |  |  |  |  | 14 | 90 | 60 | none of the 120 patients suffered any adverse reactions | without adverse reactions
